Laboratory results as given in patent publication US11292791B2 (priority 2017, dated 2022).

molecular target: BRD4 (Homo sapiens (Human), UniProt O60885); conditions: read-out: BRD4 IC50 (μM gmean)

SMILES | IC50 [µM]
COC(=O)N1c2ccc3c(nc(CC(C(=O)O)c4ccccc4)n3-c3cccc(OC)c3)c2CC[C@@H]1C (stereo partly drawn) [Example 516] | 1 to 1000
COC(=O)N1c2ccc3c(nc(CCc4ccccc4C(=O)O)n3C3CCCCC3)c2CC[C@@H]1C [Example 521] | 1 to 1000
C/C=C(\Oc1ccccc1)c1nc2c3c(ccc2n1[C@@H]1CCC[C@@H](C(=O)O)C1)N(C(=O)OC)[C@@H](C)CC3 [Example 522] | 1 to 1000
COC(=O)N1c2ccc3c(nc(CC(C(=O)O)c4ccc(C(F)F)cc4)n3C3CCCOC3)c2CC[C@@H]1C (stereo partly drawn) [Example 524] | 1 to 1000
COC(=O)N1c2ccc3c(nc(C(C)Cn4ccc(C)n4)n3C3CCC(C(=O)O)CC3)c2CC[C@@H]1C (stereo partly drawn) [Example 526] | 1 to 1000
COC(=O)N1c2ccc3c(nc(Cc4ccc(OC(F)F)cc4)n3[C@@H]3CCC[C@@H](C(=O)O)C3)c2CC[C@@H]1C [Example 533] | 1 to 1000
CCC(O)(c1ccccc1)c1nc2c3c(ccc2n1[C@@H]1CCC[C@@H](C(=O)O)C1)N(C(=O)OC)[C@@H](C)CC3 (stereo partly drawn) [Example 534] | 1 to 1000
COC(=O)N1c2ccc3c(nc(CC(C(=O)O)c4ccccc4)n3-c3ccc(OC)cc3)c2CC[C@@H]1C (stereo partly drawn) [Example 536] | 1 to 1000
COC(=O)N1c2ccc3c(nc(CC(C(=O)O)c4ccc(C)cc4)n3C3CCCOC3)c2CC[C@@H]1C (stereo partly drawn) [Example 539] | 1 to 1000
COC(=O)N1c2ccc3c(nc(Cc4cc(F)cc(OC)c4)n3[C@@H]3CCC[C@@H](C(=O)O)C3)c2CC[C@@H]1C [Example 541] | 1 to 1000
COC(=O)N1c2ccc3c(nc(C(C)(O)c4ccccc4)n3C3CCCC(C(=O)O)C3)c2CC[C@@H]1C (stereo partly drawn) [Example 542] | 1 to 1000
COC(=O)N1c2ccc3c(nc(Cc4ccc(OC(F)F)cc4)n3[C@H]3CC[C@H](C(=O)O)CC3)c2CC[C@@H]1C [Example 544] | 1 to 1000
COC(=O)N1c2ccc3c(nc(Cc4ccc(C)cc4)n3[C@@H]3CCC[C@@H](C(=O)O)C3)c2CC[C@@H]1C [Example 549] | 1 to 1000
COC(=O)N1c2ccc3c(nc(CCc4ccc(C)c(F)c4)n3[C@@H]3CCC[C@@H](C(=O)O)C3)c2CC[C@@H]1C [Example 550] | 1 to 1000
COC(=O)N1c2ccc3c(nc(C(C)Cn4cc(Cl)cn4)n3C3CCC(C(=O)O)CC3)c2CC[C@@H]1C (stereo partly drawn) [Example 551] | 1 to 1000
COC(=O)N1c2ccc3c(nc(Cc4ccc(OC)c(F)c4F)n3[C@H]3CC[C@H](C(=O)O)CC3)c2CC[C@@H]1C [Example 553] | 1 to 1000
COC(=O)N1c2ccc3c(nc(Cc4ccccc4C(=O)O)n3C3CCCCC3)c2CC[C@@H]1C [Example 555] | 1 to 1000
COC(=O)N1c2ccc3c(nc(C(C)(C)c4ccc(OC)c(F)c4)n3[C@H]3CC[C@H](C(=O)O)CC3)c2CC[C@@H]1C [Example 560] | 1 to 1000
COC(=O)N1c2ccc3c(nc(Cc4cc(F)ccc4OC)n3[C@H]3CC[C@H](C(=O)O)CC3)c2CC[C@@H]1C [Example 561] | 1 to 1000
COC(=O)N1c2ccc3c(nc(Cc4ccc(OC5CC5)nc4)n3[C@@H]3CCC[C@@H](C(=O)O)C3)c2CC[C@@H]1C [Example 562] | 1 to 1000
COC(=O)N1c2ccc3c(nc(CC(C(=O)O)c4ccc(C)cc4)n3C3COCC(F)(F)C3)c2CC[C@@H]1C (stereo partly drawn) [Example 563] | 1 to 1000
COC(=O)N1c2ccc3c(nc(Cc4ccc(OC)cc4)n3[C@@H]3CCC[C@@H](C(=O)O)C3)c2CC[C@@H]1C [Example 568] | 1 to 1000

SMILES | IC50 [µM]
COC(=O)N1c2ccc3c(nc(C4(Oc5ccccc5)CC4)n3[C@H]3CC[C@H](C(=O)O)CC3)c2CC[C@@H]1C [Example 574] | 1 to 1000
COC(=O)N1c2ccc3c(nc(CC4CCCCC4)n3[C@@H]3CCC[C@@H](C(=O)O)C3)c2CC[C@@H]1C [Example 575] | 1 to 1000
COC(=O)N1c2ccc3c(nc(Cc4ccc5[nH]ccc5c4)n3[C@@H]3CCC[C@@H](C(=O)O)C3)c2CC[C@@H]1C [Example 577] | 1 to 1000
COC(=O)N1c2ccc3c(nc(CC(C(=O)O)c4cccc5ccccc45)n3C3CCCOC3)c2CC[C@@H]1C (stereo partly drawn) [Example 580] | 1 to 1000
COC(=O)N1c2ccc3c(nc(Cc4ccc(N(C)C)c(F)c4)n3[C@H]3CC[C@H](C(=O)O)CC3)c2CC[C@@H]1C [Example 581] | 1 to 1000
COC(=O)N1c2ccc3c(nc(C(CO)c4ccccc4)n3C3CCC(C(=O)O)CC3)c2CC[C@@H]1C (stereo partly drawn) [Example 582] | 1 to 1000
COC(=O)N1c2ccc3c(nc(C(C)Cn4cccn4)n3C3CCCC(C(=O)O)C3)c2CC[C@@H]1C (stereo partly drawn) [Example 583] | 1 to 1000
COC(=O)N1c2ccc3c(nc(CC(C(=O)O)c4ccc(C(F)F)cc4)n3C3CCCOC3)c2CC[C@@H]1C (stereo partly drawn) [Example 584] | 1 to 1000
COC(=O)N1c2ccc3c(nc(C4(N5CCCCC5=O)CC4)n3[C@@H]3CCC[C@@H](C(=O)O)C3)c2CC[C@@H]1C [Example 588] | 1 to 1000
COC(=O)N1c2ccc3c(nc(C(O)c4cc5ccoc5cn4)n3C3CCCC(C(=O)O)C3)c2CC[C@@H]1C (stereo partly drawn) [Example 589] | 1 to 1000
COC(=O)N1c2ccc3c(nc(N(C)c4ccc(C)cc4)n3[C@@H]3CCC[C@@H](C(=O)O)C3)c2CC[C@@H]1C [Example 591] | 1 to 1000
COC(=O)N1c2ccc3c(nc(Cc4cccc(OC(F)F)n4)n3[C@@H]3CCC[C@@H](C(=O)O)C3)c2CC[C@@H]1C [Example 593] | 1 to 1000
COC(=O)N1c2ccc3c(nc(CC(C(=O)O)c4ccccc4)n3C3COCC(F)(F)C3)c2CC[C@@H]1C (stereo partly drawn) [Example 594] | 1 to 1000
COC(=O)N1c2ccc3c(nc(C(O)CC4CCC(F)(F)CC4)n3C3CCCC(C(=O)O)C3)c2CC[C@@H]1C (stereo partly drawn) [Example 596] | 1 to 1000
COC(=O)N1c2ccc3c(nc(Cc4cccc(F)c4)n3[C@@H]3CCC[C@@H](C(=O)O)C3)c2CC[C@@H]1C [Example 601] | 1 to 1000
COC(=O)N1c2ccc3c(nc(CC(C(=O)O)c4ccccc4)n3C3COCC(F)(F)C3)c2CC[C@@H]1C (stereo partly drawn) [Example 602] | 1 to 1000
COC(=O)N1c2ccc3c(nc(C(C)(O)c4ccccc4)n3C3CCCC(C(=O)O)C3)c2CC[C@@H]1C (stereo partly drawn) [Example 607] | 1 to 1000
COC(=O)N1c2ccc3c(nc(C(O)c4ccc(Cl)cn4)n3C3CCCC(C(=O)O)C3)c2CC[C@@H]1C (stereo partly drawn) [Example 610] | 1 to 1000
COC(=O)N1c2ccc3c(nc(Cc4cncc(C(C)C)n4)n3[C@@H]3CCC[C@@H](C(=O)O)C3)c2CC[C@@H]1C [Example 611] | 1 to 1000
COC(=O)N1c2ccc3c(nc(N(C)c4cccc(F)c4)n3[C@H]3CC[C@H](C(=O)O)CC3)c2CC[C@@H]1C [Example 613] | 1 to 1000
COC(=O)N1c2ccc3c(nc(CC4CCCCC4O)n3C3CCCC(C(=O)O)C3)c2CC[C@@H]1C (stereo partly drawn) [Example 614] | 1 to 1000
COC(=O)N1c2ccc3c(nc(Cc4cccc(Cl)c4)n3[C@@H]3CCC[C@@H](C(=O)O)C3)c2CC[C@@H]1C [Example 616] | 1 to 1000

SMILES | IC50 [µM]
COC(=O)N1c2ccc3c(nc(C4(n5cc(Cl)cn5)CC4)n3[C@H]3CC[C@H](C(=O)O)CC3)c2CC[C@@H]1C [Example 617] | 1 to 1000
COC(=O)N1c2ccc3c(nc(Cc4ccc(OC(F)F)nc4)n3[C@@H]3CCC[C@@H](C(=O)O)C3)c2CC[C@@H]1C [Example 619] | 1 to 1000
COC(=O)N1c2ccc3c(nc(CC(C(=O)O)c4ccc(C5CC5)cc4)n3C3CCCOC3)c2CC[C@@H]1C (stereo partly drawn) [Example 620] | 1 to 1000
COC(=O)N1c2ccc3c(nc(C(C)CC4CCOCC4)n3C3CCCC(C(=O)O)C3)c2CC[C@@H]1C (stereo partly drawn) [Example 622] | 1 to 1000
COC(=O)N1c2ccc3c(nc(C(O)C4CCCCC4)n3C3CCCC(C(=O)O)C3)c2CC[C@@H]1C (stereo partly drawn) [Example 625] | 1 to 1000
COC(=O)N1c2ccc3c(nc(C(C)Cn4cccn4)n3C3CCC(C(=O)O)CC3)c2CC[C@@H]1C (stereo partly drawn) [Example 627] | 1 to 1000
COC(=O)N1c2ccc3c(nc(CCn4cc(Cl)cn4)n3[C@@H]3CCC[C@@H](C(=O)O)C3)c2CC[C@@H]1C [Example 628] | 1 to 1000
COC(=O)N1c2ccc3c(nc(CC(C(=O)O)c4ccc(C(F)F)cc4)n3C3COCC(F)(F)C3)c2CC[C@@H]1C (stereo partly drawn) [Example 629] | 1 to 1000
COC(=O)N1c2ccc3c(nc(CC(C(=O)O)c4ccccc4)n3C3CCCC(OC)C3)c2CC[C@@H]1C (stereo partly drawn) [Example 632] | 1 to 1000
COC(=O)N1c2ccc3c(nc(COc4ccccc4)n3[C@H]3CC[C@H](C(=O)O)CC3)c2CC[C@@H]1C [Example 633] | 1 to 1000
COC(=O)N1c2ccc3c(nc(CN4CCC5(CCC5)CC4=O)n3[C@@H]3CCC[C@@H](C(=O)O)C3)c2CC[C@@H]1C [Example 634] | 1 to 1000
COC(=O)N1c2ccc3c(nc(C(O)c4cc5c(cn4)OCC5)n3C3CCCC(C(=O)O)C3)c2CC[C@@H]1C (stereo partly drawn) [Example 636] | 1 to 1000
COC(=O)N1c2ccc3c(nc(Cc4ccc(NC(C)=O)c(F)c4)n3[C@H]3CC[C@H](C(=O)O)CC3)c2CC[C@@H]1C [Example 639] | 1 to 1000
COC(=O)N1c2ccc3c(nc(Cc4ccc(OC)c(OC)c4)n3[C@@H]3CCC[C@@H](C(=O)O)C3)c2CC[C@@H]1C [Example 641] | 1 to 1000
COC(=O)N1c2ccc3c(nc(Cn4cc(Cl)cn4)n3[C@@H]3CCC[C@@H](C(=O)O)C3)c2CC[C@@H]1C [Example 643] | 1 to 1000
COC(=O)N1c2ccc3c(nc(CC(C(=O)O)c4cccc(C)c4)n3C3CCCOC3)c2CC[C@@H]1C (stereo partly drawn) [Example 644] | 1 to 1000
COC(=O)N1c2ccc3c(nc(Cc4cncc(Cl)n4)n3[C@@H]3CCC[C@@H](C(=O)O)C3)c2CC[C@@H]1C [Example 645] | 1 to 1000
COC(=O)N1c2ccc3c(nc(C(C)(C)c4ccccc4)n3[C@H]3CC[C@H](C(=O)O)CC3)c2CC[C@@H]1C [Example 646] | 1 to 1000
COC(=O)N1c2ccc3c(nc(CCC4CCOCC4)n3[C@@H]3CCC[C@@H](C(=O)O)C3)c2CC[C@@H]1C [Example 648] | 1 to 1000
COC(=O)N1c2ccc3c(nc(C(C)Cn4cc(Cl)cn4)n3C3CCS(=O)(=O)C3)c2CC[C@@H]1C (stereo partly drawn) [Example 651] | 1 to 1000
COC(=O)N1c2ccc3c(nc(C(C)Cn4cc(C)cn4)n3C3CCC(C(=O)O)CC3)c2CC[C@@H]1C (stereo partly drawn) [Example 655] | 1 to 1000
COC(=O)N1c2ccc3c(nc(Cc4cc(Cl)cc(OC)c4)n3[C@H]3CC[C@H](C(=O)O)CC3)c2CC[C@@H]1C [Example 656] | 1 to 1000
